# Laboratory results from article PMC3702004, “Comparison of Intake and Systemic Relative Effect Potencies of Dioxin-like Compounds in Female Mice after a Single Oral Dose” (Environmental Health Perspectives, 2013).
# Columns and labels:
# Format in all cases: in vivo, female C57BL/6 mice
# [1] = system: Cyp1a1 mRNA in PBLs; experiment: Cyp1a1 gene expression in peripheral blood lymphocytes; conditions: for BMR20TCDD PBLs Cyp1a1 mRNA: 3 days after single oral dose; for REP PBLs Cyp1a1 mRNA: relative to TCDD
# Method: (§1) Animals. Eight-week-old female C57BL/6 mice (Harlan laboratories, Venray, the Netherlands) were randomly assigned to treatment groups (six animals per group) and allowed to acclimate for 1.5 weeks. The animals were housed in groups in standard cages and conditions (23 ± 2°C, 50–60% relative humidity, 12-hr dark/light cycle) with free access to food and water. Mice received a single dose of test compound by oral gavage at a dosing volume of 10 mL/kg body weight (BW). Mice treated with corn oil vehicle (10 mL/kg BW) served as controls. For each congener, five different doses were administered, ranging from 0.5–100 μg/kg BW (TCDD) to 5,000–500,000 µg/kg BW (PCB-153). Detailed information on doses is provided in Supplemental Material, Table S1 (http://dx.doi.org/10.1289/ehp.1206336). On day 3 after dosing, animals were euthanized by CO2/O2 asphyxiation, and blood was immediately collected from the abdominal aorta. The liver, thymus, spleen, and adipose tissue were removed, weighed (liver, thymus, and spleen), snap frozen, and stored at –80°C. All animal treatments were performed with permission of the Animal Ethical Committee (DEC Utrecht) and performed according to the [Law on Animal Experiments (1977)]. Animals were treated humanely and with regard for alleviation of suffering.
# Plasma and PBL isolation. Blood from two mice was pooled (total volume of approximately 1.4 mL); plasma and PBLs were then isolated using Ficoll Paque gradient (GE Healthcare Europe, Diegem, Belgium). Plasma samples were stored at –80°C until compound analysis. Isolated lymphocytes were lysed with RLT buffer (QIAGEN, Venlo, the Netherlands) as described in the QIAGEN RNAeasy kit protocol and stored at –80°C until use.
# (§2) RNA isolation and quantitative real-time polymerase chain reaction (PCR). Total RNA was isolated from liver and PBLs using a QIAGEN RNeasy kit (QIAGEN). Purity and concentration of the isolated RNA was determined by measuring the absorbance ratio at 260/280 nm and 230/260 nm with a Nanodrop 2000 spectrophotometer (Thermo Scientific, Asheville, NC, USA). RNA was reverse transcribed to complementary DNA (cDNA) using the iScript cDNA synthesis Kit (Bio-Rad, Veenendaal, the Netherlands). Quantitative real-time PCR analyses were performed using the iQ Real-Time PCR Detection System with SYBR green (Bio-Rad). Amplification reactions were set up with […] containing 12.5 μL iQ SYBR Green Supermix (Bio-rad), 0.5 μL distilled H2O, 1 μL (10 μM) forward primer, 1 μL (10 μM) reverse primer, and 10 μL first strand cDNA (10X diluted). Primer sequences were as follows: Cyp1a1: forward-5´-GGTTAACCATGACCGGGAACT-3´ and reverse-5´-TGCCCAAACCAAAGAGAGTGA-3´ ([Schulz et al. 2012]); Cyp1a2: forward-5´-ACATTCCCAAGGAGCGCTGTATCT-3´ and reverse-5´-GTCGATGGCCGAGTTGTTATTGGT-3´ ([Flaveny et al. 2010]); Cyp1b1: forward-5´-GTGGCTGCTCATCCTCTTTACC-3´ and reverse-5´-CCCACAACCTGGTCCAACTC-3´ ([Berge et al. 2004]); β-actin: forward-5´-ATGCTCCCCGGGCTGTAT-3´ and reverse-5´-CATAGGAGTCCTTCTGACCCATTC-3´ ([Schulz et al. 2012]). All primers were run through the National Center for Biotechnology Information Primer-BLAST database (http://www.ncbi.nlm.nih.gov/tools/primer-blast/) to confirm specificity and validate for optimal annealing temperature (60°C for all primers) and efficiency. […] The following program was used for denaturation and amplification of cDNA: 3 min at 95°C, followed by 40 cycles of 15 sec at 95°C and 45 sec at 60°C. Gene expression for each sample was expressed as threshold cycle (Ct), normalized to the reference gene β-actin (ΔCt). We calculated fold induction relative to the control group.
# Data analysis. We obtained concentration–response curves using a sigmoidal dose–response nonlinear regression curve fit with variable slope (GraphPad Prism 6.01; GraphPad Software Inc., San Diego, CA, USA): […]
# [2] = system: hepatic CYP1A1 activity (ethoxyresorufin-O-deethylase, EROD); experiment: Hepatic EROD activity in hepatic microsomal fractions after single oral dose; conditions: for BMR20TCDD Liver EROD activity: 3 days after single oral dose; for REP Liver EROD activity: relative to TCDD
# Method: as §1
# EROD activity. We determined hepatic CYP1A1 activity using ethoxyresorufin-O-deethylase (EROD) activity in hepatic microsomal fractions as described by [Schulz et al. (2012)].
# (§3) Data analysis. We obtained concentration–response curves using a sigmoidal dose–response nonlinear regression curve fit with variable slope (GraphPad Prism 6.01; GraphPad Software Inc., San Diego, CA, USA):
# (§4) In this Hill equation, y is the dependent variable (EROD activity or fold induction of mRNA levels), x the independent variable (administered or systemic dose), E0 is the estimated background response level, Emax is the maximum response, b is the estimated median effective concentration (EC50), and n is the shaping parameter of the Hill curve.
# (§5) Using the congener-specific BMR20TCDD concentration, REPs were calculated relatively to TCDD: […]
# [3] = system: Cyp1a1 mRNA in liver; experiment: Cyp1a1 gene expression in liver (real-time PCR); conditions: for BMR20TCDD Liver Cyp1a1 mRNA: 3 days after single oral dose; for REP Liver Cyp1a1 mRNA: relative to TCDD
# Method: as §1, §2, §3, §4, §5
# [4] = dose metric Adm dose (µg/kg BW)
# [5] = dose metric Syst plasma (ng/g lipid)
# [6] = dose metric Syst adipose (ng/g lipid)
# [7] = dose metric Syst liver (ng/g lipid)
# [8] = dose metric Syst liver (ng/g liver)
Compound,BMR20TCDD PBLs Cyp1a1 mRNA ([1]; dose metric Adm dose),BMR20TCDD PBLs Cyp1a1 mRNA ([1]; dose metric Syst plasma),"REP PBLs Cyp1a1 mRNA [1, 4]","REP PBLs Cyp1a1 mRNA [1, 5]",BMR20TCDD Liver EROD activity ([2]; dose metric Adm dose),BMR20TCDD Liver EROD activity ([2]; dose metric Syst adipose),BMR20TCDD Liver EROD activity ([2]; dose metric Syst plasma),"REP Liver EROD activity [2, 4]","REP Liver EROD activity [2, 6]","REP Liver EROD activity [2, 7]","REP Liver EROD activity [2, 8]","REP Liver EROD activity [2, 5]",BMR20TCDD Liver Cyp1a1 mRNA ([3]; dose metric Adm dose),BMR20TCDD Liver Cyp1a1 mRNA ([3]; dose metric Syst adipose),BMR20TCDD Liver Cyp1a1 mRNA ([3]; dose metric Syst plasma),"REP Liver Cyp1a1 mRNA [3, 4]","REP Liver Cyp1a1 mRNA [3, 6]","REP Liver Cyp1a1 mRNA [3, 7]","REP Liver Cyp1a1 mRNA [3, 8]","REP Liver Cyp1a1 mRNA [3, 5]"
"Clc1ccc(-c2cc(Cl)c(Cl)c(Cl)c2Cl)cc1Cl [PCB-156, 2,3,3´,4,4´,5-hexachlorobiphenyl]","747,734 µg/kg BW","2,359,081 ng/g lipid",0.00003,0.00002,"15,664 µg/kg BW","82,483 ng/g lipid","98,188 ng/g lipid",0.00002,0.00001,0.0002,0.0002,0.00001,"44,305 µg/kg BW","180,515 ng/g lipid","303,586 ng/g lipid",0.00001,0.00001,0.0001,0.0001,0.000009
"Clc1cc2c(cc1Cl)Oc1cc(Cl)c(Cl)cc1O2 [TCDD, 2,3,7,8-tetrachlorodibenzodioxin, reference compound]",22.4 µg/kg BW,50.6 ng/g lipid,1,1,0.29 µg/kg BW,1.23 ng/g lipid,1.38 ng/g lipid,1,1,1,1,1,0.64 µg/kg BW,2.50 ng/g lipid,2.66 ng/g lipid,1,1,1,1,1
"Clc1cc2c(cc1Cl)Oc1c(cc(Cl)c(Cl)c1Cl)O2 [PeCDD, 1,2,3,7,8-pentachlorodibenzodioxin]",33.7 µg/kg BW,34.0 ng/g lipid,0.7,1.5,0.54 µg/kg BW,1.25 ng/g lipid,2.31 ng/g lipid,0.5,1,0.3,0.3,0.6,1.25 µg/kg BW,2.36 ng/g lipid,3.94 ng/g lipid,0.5,1,0.4,0.4,0.7
"Clc1ccc(-c2cc(Cl)c(Cl)cc2Cl)cc1Cl [PCB-118, 2,3´,4,4´,5-pentachlorobiphenyl]",–,–,–,–,"55,259 µg/kg BW","359,114 ng/g lipid","311,118 ng/g lipid",0.000005,0.000003,0.00006,0.00006,0.000004,"139,631 µg/kg BW",–,"803,766 ng/g lipid",0.000005,–,0.00005,0.00007,0.000003
"Clc1ccc(-c2cc(Cl)c(Cl)c(Cl)c2)cc1Cl [PCB-126, 3,3´,4,4´,5-pentachlorobiphenyl]",603 µg/kg BW,847 ng/g lipid,0.04,0.06,29.3 µg/kg BW,72.7 ng/g lipid,72.3 ng/g lipid,0.01,0.02,0.003,0.004,0.02,558 µg/kg BW,315 ng/g lipid,–,0.001,0.008,0.001,0.001,0.008
